According to patent publication US7745450B2, “Pyrazolo[4,3-d]pyrimidines, processes for their preparation and methods for therapy” (Institute of Experimental Botany, priority 2002, dated 2010):
Where two headings read alike, the source gives them in different places.

What was measured:
normal human lymphocytes = experiment: Immunosuppressive activity, 3H-thymidine incorporation in concanavalin A activated lymphocytes; assay type: cell-based; settings: Lymphocyte, 72 hours, [3H]-TdR, read-out: Human lymphocytes ED50
Experimental: Human heparinized peripheral blood was obtained from healthy volunteers by cubital vein punction. The blood was diluted in PBS (1:3) and mononuclear cells were separated by centrifugation in Ficoll-Hypaque density gradient (Pharmacia, 1.077 g/ml) at 2200 rpm for 30 minutes. Following centrifugation, lymphocytes were washed in PBS and resuspended in cell culture medium (RMPI 1640, 2 mM glutamine, 100 U/ml penicillin, 100 μg/ml streptomycin, 10% fetal calf serum and sodium bicarbonate).
The cells were diluted at target density of 1.100.000 cells/ml were added by pipette (180 μl) into 96/well microtiter plates. Four-fold dilutions of the intended test concentration were added at time zero in 20 μl aliquots to the microtiter plate wells. Usually, test compound was evaluated at six 4-fold dilutions. In routine testing, the highest well concentration was 266.7 μM. All drug concentrations were examined in duplicates. All wells with exception of unstimulated controls were activated with 50 μl of concanavalin A (25 μg/ml). Incubations of cells with test compounds lasted for 72 hours at 37° C., in 5% CO2 atmosphere and 100% humidity. At the end of incubation period, the cells were assayed by using the [^3H]-TdR:
Cell cultures were incubated with 0.5 μCi (20 μl of stock solution […]) per well for 6 hours at 37° C. and 5% CO2. The automated cell harvester was used to lyse cells in water and adsorb the DNA onto glass-fiber filters in the format of microtiter plate. The DNA incorporated [^3H]-TdR was retained on the filter while unincorporated material passes through. The filters were dried at room temperature overnight, sealed into a sample bag with 10-12 ml of scintillant. The amount of [^3H]-TdR present in each filter (in cpm) was determined by scintillation counting in a Betaplate liquid scintillation counter. The effective dose of immunosuppressant (ED) was calculated using the following equation: ED=(CCPMdrug exposed well/mean CCPMcontrol wells)×100%.

[1] = tested on: human melanoma cell line Arn8 (p53-responsive reporter); experiment: p53-dependent transcriptional activity, β-galactosidase reporter; assay type: cell-based; settings: concentration inducing maximum of β-galactosidase activity
Experimental: Cell lines established from the human cervical carcinoma (HeLa), human breast carcinoma (MCF-7, BT549 and BR474), human osteosarcoma (HOS), human colon carcinoma (HT29), murine fibroblasts (T221acZ) and the human melanoma (Arn8) cell lines were cultured in Dubecco's Modified Eagle Medium (DMEM) supplemented with 10% fetal bovine serum. Tested compounds were added from 50 mM stock solution in dimethyl-sulphoxide (DMSO) into the culture medium at final concentration 20 μM. Control cells received an equivalent volume of DMSO.
β-galactosidase activity of human melanoma cell line […] T221acZ (both stabile transfected with a p53-responsive reporter construct pRGCΔfoslacZ) (Frebung et al., Cancer Res., 52, 1992-6976) was determined. For the determination of total β-galactosidase activity, cells were lysed by 3 freeze-thaw cycles in 0.25 M Tris pH 7.5, and lysates were assayed as described by Sambrook et al., Mol. cloning, New York, 1989.
Effect of 25 and related compounds on activation of p53 protein was also analyzed in human melanoma cell line Arn8 and murine fibroblast cell line T22LacZ expressing β-galactosidase under control of p53 responsive promoter. Induction of wt p53 in these cells treated with 20 μM 25 (6, 12 and 24 hrs) leads to activation of responsive promoter and consequently to expression of β-galactosidase. Arn8 and T221acZ cells treated with 25 were fixed and examined microscopically for β-galactosidase activity using X-gal substrate leading to about 25% blue-colored cells compared to less than 1% of blue-colored cells in DMSO-treated control cells (data not shown). The total β-galactosidase activity in Arn8 cells was also assessed using colorimetric assay.

DNA synthesis = experiment: Inhibition of DNA synthesis in Xenopus egg extracts; assay type: biochemical; settings: [α-32P]dATP incorporation after 3 h
Experimental: Metaphase-arrested Xenopus egg extracts were prepared as described previously by Blow “J. Cell Biol.” 1993; 122:993 and stored in liquid nitrogen. Demembranated Xenopus sperm nuclei were prepared as described. by Blow & Laskey “Cell” 1986; 47:577. After thawing, extracts were supplemented with 25 mM phosphocreatine, 5 μg/ml creatine phosphokinase, 250 μg/ml cycloheximide, [α-^32P]dATP (for DNA synthesis assays). Demembranated sperm nuclei were added to a final sperm concentration of 3 ng/μl DNA extract and CDK inhibitor tested was then added at different concentrations. […] DNA synthesis was assessed by releasing extract into interphase by the addition of 0.3 mM CaCl2 and measuring the total amount of [α-^32P]dATP incorporation after 3 h by TCA co-precipitation.

cdk1/cyclin B (CDC2) = cdk1/cyclin B (CDC2) (Homo sapiens, UniProt P06493); experiment: CDK inhibition assay, cdk1/cyclin B (CDC2) kinase, histone phosphorylation; assay type: biochemical
Method in brief: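 Human cdk1/cyclin B activity measured with 1 mg/ml histone substrate, 15 μM ATP plus [γ-32P]ATP, in HEPES pH 7.4 buffer with 10 mM MgCl2. Phosphorylation quantified by phosphorimaging; activity expressed as % of maximum, IC50 from dose-response curves by graphic analysis.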

IκB-α kinase = IκB-α kinase inhibition, in vitro kinase assay; assay type: biochemical
[2] = tested on: Cytokinin-dependent tobacco callus Nicotiana tabacum L. cv. Wisconsins 38; experiment: Tobacco callus bioassay for cytotoxicity (herbicidal activity); assay type: cell-based; settings: Nicotiana tabacum, 672 h
Experimental: The novel compounds have also been tested in tobacco callus bioassay for cytotoxicity (herbicidal activity) and induction of cell death. The compounds to be tested were dissolved in dimethylsulfoxide (DMSO) and the solution brought up to 10^−3 M with distilled water. […] Cytokinin-dependent tobacco callus Nicotiana tabacum L. cv. Wisconsins 38 Murashige-Skoog medium, containing per 1 liter: 4 μmol nicotinic acid, 2.4 μmol pyridoxine hydrochloride, 1.2 μmol thiamine, 26.6 μmol glycine, 1.37 μmol glutamine, 1.8 μmol myo.inositol, 30 g of sucrose, 8 g of agar, […] α-naphthylacetic acid and 0.5 μmol 6-benzylaminopurine. Sub cultivation was carried out every three weeks. Fourteen days before the bioassay, the callus tissue was transferred to the media without 6-benzylaminopurine. Compounds were tested with two different concentrations of 6-benzylaminopurine (10^−5 M and 10^−6 M). Inhibitory growth activity was determined from the increase in fresh callus weight after four weeks of cultivation. Five replicates were prepared for each concentration tested and the entire test was repeated at least twice.

β-adrenergic receptors = experiment: Modulation of isoproterenol-induced cAMP synthesis in rat C6 glioma; assay type: cell-based; settings: cAMP synthesis induced by 5 μM (−) isoproterenol; for IC50: read-out: I50; for Effect / Effect: activation: simultaneous addition, 30 min
Experimental: Mechanism of action of novel compounds is presented on FIG. 3. Rat C6 glioma (ATCC N° CCL107) was cultivated in monolayer in serum-free chemically defined medium containing Ham's F10/minimal essential medium (1:1 vol/vol), 2 mM L-glutamine, 1% (vol/vol) minimal essential medium vitamins (100×), 1% (vol/vol) minimal essential medium nonessential amino acids (100×), 100 U/ml penicillin, 100 μg/ml streptomycin and 30 nM sodium selenide. Incubation was at 37° C. in a humidified atmosphere. Assays were performed in the logarithmic growth phase at a density of 2.5×10^5 cells/cm^2. Intracellular cAMP synthesis was induced by addition of 5 μM (−) isoproterenol. After 30 min incubation at 37° C. the medium was removed and the cellular amount of cAMP determined using the cAMP-enzyme immunoassay kit of Amersham. The I50 is determined from a dose-response curve in duplicate.
The effect of seven purine-analogs was measured after simultaneous addition with isoproterenol.

MMK1 protein kinase = MMK1 protein kinase (Vicia faba, UniProt A0AAV1B7B8); experiment: MMK1 protein kinase activity; assay type: biochemical
Method in brief: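 Plant CDK was purified from extracts on p13^suc1-beads or by anti-cdc2a-MS immunopurification, and MMK1 was immunopurified from Vicia faba extracts. Kinase activity was read as radioactivity incorporated into histone H1 or myelin basic protein, quantified by phosphoimager.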

[3] = tested on: CEM (human lymphoblastoid leukemia); experiment: In vitro cytotoxic activity, Calcein AM; assay type: cell-based; settings: three days
Method in brief: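 CEM cells were seeded at 10^4/well in DMEM + 10% FBS and exposed to six concentrations from 200 to 0.2 μM, in triplicate, for 3 days at 37 °C and 5% CO2. Viable cells were then measured by Calcein AM fluorescence after 1 h loading.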

B16 = experiment: In vitro cytotoxic activity, Calcein AM; assay type: cell-based; settings: three days
[4] = molecular target: cdc2a-MS protein (plant CDK, cdc2Ms kinase) (Vicia faba, UniProt A0AAV0YZ35); experiment: CDK inhibitory activity on plant kinases (plant CDK); assay type: biochemical; settings: histone H1 phosphorylation
Experimental: Protein extraction and purification of pant CDK by binding to p13^suc1-beads or immunopurification with an antibody specific to the cdc2a-MS protein was carried out as described previously (Bögre et al. 1997, Plant Physiol. 113, 1997, 841-852). The MMK1 protein kinase was purified with a specific antibody from Vicia faba extracts as described by Bögre et al. 1997a, Plant Cell 9, 75-83). Protein kinase activity was measures as described above in Example 20. The quantification of radioactivity incorporated into histone H1 or myelin basic protein was undertaken using phosphoimager (FIG. 2).

[5] = read-out: 10^−5 M BAP IC50, 10^−5 M 6-benzylaminopurine, four weeks
[6] = read-out: 10^−6 M BAP IC50, 10^−6 M 6-benzylaminopurine, four weeks

Chain of cdk1/cyclin B (CDC2) (P06493 whole entry, species assumed): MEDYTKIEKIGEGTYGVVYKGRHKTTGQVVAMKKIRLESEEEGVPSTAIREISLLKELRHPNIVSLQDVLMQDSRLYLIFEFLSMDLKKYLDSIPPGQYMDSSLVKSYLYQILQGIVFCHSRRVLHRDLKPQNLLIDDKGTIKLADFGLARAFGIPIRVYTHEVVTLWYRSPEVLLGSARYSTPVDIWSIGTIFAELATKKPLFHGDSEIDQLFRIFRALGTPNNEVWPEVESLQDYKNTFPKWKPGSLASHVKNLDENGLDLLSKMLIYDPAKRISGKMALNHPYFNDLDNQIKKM
Chain of cdk1/cyclin B (CDC2) (P14635 whole entry partner, species assumed): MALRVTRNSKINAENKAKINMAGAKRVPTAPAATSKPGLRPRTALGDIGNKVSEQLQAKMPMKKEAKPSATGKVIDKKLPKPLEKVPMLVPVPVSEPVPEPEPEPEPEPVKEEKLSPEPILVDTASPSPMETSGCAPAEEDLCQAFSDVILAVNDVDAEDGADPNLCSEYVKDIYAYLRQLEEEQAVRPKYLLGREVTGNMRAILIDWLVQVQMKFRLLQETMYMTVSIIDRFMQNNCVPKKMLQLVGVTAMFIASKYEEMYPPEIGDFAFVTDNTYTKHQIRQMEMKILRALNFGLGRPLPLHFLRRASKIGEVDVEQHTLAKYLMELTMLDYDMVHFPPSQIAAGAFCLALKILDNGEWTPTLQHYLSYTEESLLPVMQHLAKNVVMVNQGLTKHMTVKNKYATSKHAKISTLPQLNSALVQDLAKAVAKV
Chain of MMK1 protein kinase (A0AAV1B7B8 1-394): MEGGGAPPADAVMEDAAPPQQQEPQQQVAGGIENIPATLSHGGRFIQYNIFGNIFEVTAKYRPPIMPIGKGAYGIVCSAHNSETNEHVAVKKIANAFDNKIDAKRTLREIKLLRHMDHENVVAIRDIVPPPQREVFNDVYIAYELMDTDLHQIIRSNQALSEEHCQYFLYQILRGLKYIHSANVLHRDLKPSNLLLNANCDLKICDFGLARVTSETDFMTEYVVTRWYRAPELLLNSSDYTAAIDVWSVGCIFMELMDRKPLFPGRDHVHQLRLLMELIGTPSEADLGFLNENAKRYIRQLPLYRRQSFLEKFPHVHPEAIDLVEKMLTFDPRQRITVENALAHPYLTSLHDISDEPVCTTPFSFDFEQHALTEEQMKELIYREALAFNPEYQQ
Chain of cdc2a-MS protein (plant CDK, cdc2Ms kinase) (A0AAV0YZ35 1-294): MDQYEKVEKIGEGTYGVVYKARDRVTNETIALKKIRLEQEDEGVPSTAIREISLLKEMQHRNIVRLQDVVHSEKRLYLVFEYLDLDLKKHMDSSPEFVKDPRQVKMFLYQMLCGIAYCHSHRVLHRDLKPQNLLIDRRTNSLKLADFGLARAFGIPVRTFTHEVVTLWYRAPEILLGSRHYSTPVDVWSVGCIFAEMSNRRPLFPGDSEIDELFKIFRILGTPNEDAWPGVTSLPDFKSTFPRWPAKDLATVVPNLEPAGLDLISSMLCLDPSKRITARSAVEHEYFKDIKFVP

CC[C@H](CO)Nc1nc(Nc2cccc(Cl)c2)c2[nH]nc(C(C)C)c2n1
EC50 (normal human lymphocytes): 1.8 µM | Max β-Gal. Activtity Conc. [1]: 12 µM

CC(C)c1n[nH]c2c(Nc3ccc(Cl)c(N)c3)nc(NCCCO)nc12
IC50 (DNA synthesis): 0.4 µM

CC[C@H](CO)Nc1nc(NCc2ccc(Cl)c(N)c2N)c2[nH]nc(C(C)C)c2n1
IC50 (cdk1/cyclin B (CDC2)): 0.2 µM | IC50 (IκB-α kinase): 0.4 µM | IC50 (DNA synthesis): 0.3 µM | IC50 [2, 5]: 49 µM | IC50 [2, 6]: 8.3 µM

COc1ccc(CNc2nc(NC3CCCC3)nc3c(C(C)C)n[nH]c23)cc1
Max β-Gal. Activtity Conc. [1]: 21 µM

CC(C)c1n[nH]c2c(NCc3cccc(Cl)c3O)nc(NCCCO)nc12
IC50 (DNA synthesis): 3.7 µM

CC(C)c1n[nH]c2c(NCc3ccccc3)nc(NCCCN)nc12 [Compound 17, 5-(3-aminopropylamino)-7-benzylamino-3-isopropylpyrazolo[4,3-d]pyrimidine]
IC50 (cdk1/cyclin B (CDC2)): 0.08 µM | IC50 (β-adrenergic receptors): 25 ± 2 µM | IC50 [2, 5]: > 50 µM | IC50 [2, 6]: 48 µM

5-(hexylamino)-7-(1-phenyl-2-hydroxyethylamino)-3-isopropylpyrazolo[4,3-d]pyrimidine [Compound 98]
Effect (β-adrenergic receptors): inhibition | IC50 (β-adrenergic receptors): 8 ± 1 µM

CC(C)c1n[nH]c2c(Nc3cccc(Cl)c3)nc(Cl)nc12 [Example 11, 7-(3-chloroanilino)-5-chloro-3-isopropylpyrazolo[4,3-d]pyrimidine]
melting point: 257 to 259 °C

COc1ccc(CNc2nc(NCc3ccc(OC)cc3)c3[nH]nc(C(C)C)c3n2)cc1 [Example 17, 5,7-di[(4-methoxybenzyl)amino]-3-isopropylpyrazolo[4,3-d]pyrimidine]
melting point: 60 to 85 °C

Cc1n[nH]c2c(NCc3ccccc3)nc(N[C@@H](CO)C(C)C)nc12
IC50 (MMK1 protein kinase): 0.4 µM | GI50 ([3]; Homo sapiens, 72 h): 2.8 µM | EC50 (normal human lymphocytes): 6.5 µM | Max β-Gal. Activtity Conc. [1]: 6.5 µM | GI50 (B16; Mus musculus, B16, 72 h): 4.3 µM

CC(C)c1n[nH]c2c(NCc3ccccc3)nc(NC(CO)C(C)C)nc12 (stereo not shown)
Effect (β-adrenergic receptors): inhibition | IC50 (β-adrenergic receptors): 25 ± 2 µM

CC[C@H](CO)Nc1nc(NCc2ccccc2)c2[nH]nc(C)c2n1
IC50 (MMK1 protein kinase): 1.3 µM | GI50 ([3]; Homo sapiens, 72 h): 3.4 µM | EC50 (normal human lymphocytes): 9.5 µM | Max β-Gal. Activtity Conc. [1]: 9.5 µM | GI50 (B16; Mus musculus, B16, 72 h): 4.2 µM

CC[C@H](CO)Nc1nc(NCc2cc(O)c(OC)cc2O)c2[nH]nc(C(C)C)c2n1
IC50 [4]: 0.002 µM | GI50 [3]: 3.5 µM | GI50 (B16): 5.7 µM

CC[C@H](CO)Nc1nc(NCc2ccc(OC)cc2)c2[nH]nc(C(C)C)c2n1
Max β-Gal. Activtity Conc. [1]: 0.8 µM

CC(C)c1n[nH]c2c(Nc3cccc(Cl)c3)nc(N[C@@H](CO)C(C)C)nc12
GI50 ([3]; Homo sapiens, 72 h): 1.2 µM | EC50 (normal human lymphocytes): 3.2 µM | Max β-Gal. Activtity Conc. [1]: 7 µM | GI50 (B16; Mus musculus, B16, 72 h): 1.7 µM

CC(C)c1n[nH]c2c(Nc3cccc(Cl)c3)nc(NC3CCCC3)nc12
Max β-Gal. Activtity Conc. [1]: 11.5 µM

CC[C@H](CO)Nc1nc(NCc2ccc(O)cc2)c2[nH]nc(C(C)C)c2n1
Effect: activation (β-adrenergic receptors): 1.8-fold activation

CC(C)c1n[nH]c2c(NCc3ccccc3)nc(NCCN)nc12 [Example 14, 7-benzylamino-5-(2-aminoethyl)amino-3-isopropylpyrazolo[4,3-d]pyrimidine]
IC50 (cdk1/cyclin B (CDC2)): 0.4 µM | IC50 (IκB-α kinase): 1.2 µM | Effect: activation (β-adrenergic receptors): 1.3-fold activation | IC50 [2, 5]: > 50 µM | IC50 [2, 6]: > 50 µM | melting point: 145 to 147 °C
